Reference: patent US12606561B2, “Substituted pyrazolo[1,5-a][1,3,5]triazines as CDK inhibitors” (QURIENT CO., LTD., priority 2018, dated 2026)

Assays:
MV4-11 = assay: Cellular MV4-11 viability assay (CellTiter-Glo, 72 hours); format: cell-based; conditions: Homo sapiens; MV4-11 cells
Summary of the method: (§1)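 CellTiter-Glo luminescence measured viability after 72 h of compound exposure (0.0015–10 uM; DMSO below 0.1%) at 37 °C, 5% CO2, run in duplicate. Dosing began 24 h post-seeding in RPMI-1640/10% FBS at 1×10^4 (MV4-11), 5×10^3 (OVCAR-3) or 1×10^3 (A2780) cells/well.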

A2780 = A2780 viability assay (CellTiter-Glo, 72 hours); format: cell-based; conditions: Homo sapiens; A2780 cells
Summary of the method: as §1

OVCAR-3 = OVCAR-3 viability assay (CellTiter-Glo, 72 hours); format: cell-based; conditions: Homo sapiens; OVCAR-3 cells
Summary of the method: as §1

CDK1/Cyclin B = molecular target: T1, CDK1/Cyclin B (Homo sapiens, UniProt P06493); assay: Enzymatic assay for CDK1 (LANCE Ultra kinase assay, FRET based); format: biochemical; conditions: ATP at Km; read-out: CDK1 enzymatic activity IC50
T1 construct: purchased Invitrogen PR4768C
T1 sequence (P06493 whole entry): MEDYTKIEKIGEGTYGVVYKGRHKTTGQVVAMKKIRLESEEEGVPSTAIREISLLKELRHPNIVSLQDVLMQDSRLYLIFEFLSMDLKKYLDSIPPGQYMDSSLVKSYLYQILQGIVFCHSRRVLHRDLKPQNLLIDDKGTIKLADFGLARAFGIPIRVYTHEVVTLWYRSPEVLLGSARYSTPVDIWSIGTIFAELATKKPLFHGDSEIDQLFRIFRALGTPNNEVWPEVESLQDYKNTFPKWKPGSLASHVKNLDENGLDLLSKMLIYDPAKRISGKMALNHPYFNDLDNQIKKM
T1 sequence (P14635 whole entry partner): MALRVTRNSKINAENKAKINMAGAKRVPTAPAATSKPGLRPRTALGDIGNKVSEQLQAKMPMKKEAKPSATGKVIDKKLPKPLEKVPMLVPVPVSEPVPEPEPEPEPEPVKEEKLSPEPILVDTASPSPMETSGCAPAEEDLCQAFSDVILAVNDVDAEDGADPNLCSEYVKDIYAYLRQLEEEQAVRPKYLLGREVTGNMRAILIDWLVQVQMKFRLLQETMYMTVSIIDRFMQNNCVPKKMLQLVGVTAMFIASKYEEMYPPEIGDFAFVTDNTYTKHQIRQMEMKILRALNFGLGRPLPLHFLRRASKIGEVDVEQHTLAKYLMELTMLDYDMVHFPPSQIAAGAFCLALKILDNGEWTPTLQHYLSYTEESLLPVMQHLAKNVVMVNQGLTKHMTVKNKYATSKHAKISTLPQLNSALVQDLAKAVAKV
Summary of the method: (§2)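 Purified CDK7/Cyclin H/MNAT1 or CDK1/Cyclin B complexes were tested for inhibition at Km ATP. Phosphorylation of a ULight-labelled peptide was detected by FRET with a Europium anti-phospho antibody (LANCE Ultra).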

CDK5/p25 = molecular target: T2, CDK5/p25 (Homo sapiens, UniProt Q00535); assay: Enzymatic assay for CDK5 (LANCE Ultra kinase assay, FRET based); format: biochemical; conditions: ATP at Km
T2 construct: purchased Invitrogen PR8543B
T2 sequence (Q00535 whole entry): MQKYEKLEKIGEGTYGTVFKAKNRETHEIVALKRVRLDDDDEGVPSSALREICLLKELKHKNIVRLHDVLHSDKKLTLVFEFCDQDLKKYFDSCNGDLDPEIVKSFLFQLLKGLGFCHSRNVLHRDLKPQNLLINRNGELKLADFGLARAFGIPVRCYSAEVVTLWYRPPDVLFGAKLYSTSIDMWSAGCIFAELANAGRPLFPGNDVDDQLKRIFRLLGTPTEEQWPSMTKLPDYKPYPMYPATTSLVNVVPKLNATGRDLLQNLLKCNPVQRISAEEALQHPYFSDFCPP
T2 sequence (Q15078 99-307 partner limits assumed): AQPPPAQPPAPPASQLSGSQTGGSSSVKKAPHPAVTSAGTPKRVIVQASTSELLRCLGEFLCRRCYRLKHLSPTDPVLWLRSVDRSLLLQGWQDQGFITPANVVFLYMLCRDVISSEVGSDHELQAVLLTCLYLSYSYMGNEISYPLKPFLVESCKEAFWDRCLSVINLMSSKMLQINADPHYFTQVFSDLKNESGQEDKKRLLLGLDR
Summary of the method: (§3)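 Inhibition was measured at ATP Km with 68 nM ULight-MBP peptide and CDK2/Cyclin A ([…]) or CDK5/p25 ([…]), using 8-dose 4-fold compound dilutions from DMSO. Kinase reaction ran 60 min at 23° C, then Eu anti-phospho-MBP plus EDTA were added for another 60 min before the fluorescence read.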

H460 = assay: Cellular H460 viability assay (CellTiter-Glo, 72 hours); format: cell-based; conditions: Homo sapiens, NCI-H460; H460 cells
Procedure: All cell lines were routinely tested for mycoplasma.
To effect of the CDK7 inhibitor to inhibit the growth of target cancer cells, viability assay were conducted a 72 hour time period. Briefly, the candidate cell line was plated in 96 well plate at the following density of cells respectively. 1×10^4 cells/well for MV4-11, 5×10^3 for H460 and OVCAR-3, and 1×10^3 for A2780. […] DMSO solvent without compound served as a control and final DMSO concentration lest than 0.1%. After 72 hours of incubation at 37° C., 5% CO2 incubator, cells were analyzed for the viability using the CellTiter-Glo Luminescent Cell Viability Assay (Promega, Cat #G7570). All viability assays were performed in duplicate and Luminescence was read using an Envision (Perkin Elmer, USA). Data was analyzed using XLfit software.

CDK2/Cyclin A = molecular target: T3, CDK2/Cyclin A (Homo sapiens, UniProt P24941); assay: Enzymatic assay for CDK2 (LANCE Ultra kinase assay, FRET based); format: biochemical; conditions: ATP at Km
T3 construct: purchased Invitrogen PV6290
Summary of the method: as §3

CDK7/Cyclin H/MNAT1 = molecular target: T4, CDK7/Cyclin H/MNAT1 (Homo sapiens, UniProt P50613); assay: Enzymatic assay for CDK7 (LANCE Ultra kinase assay, FRET based); format: biochemical; conditions: for IC50: ATP at Km
T4 construct: purchased Invitrogen PR6749B
T4 sequence (P50613 whole entry): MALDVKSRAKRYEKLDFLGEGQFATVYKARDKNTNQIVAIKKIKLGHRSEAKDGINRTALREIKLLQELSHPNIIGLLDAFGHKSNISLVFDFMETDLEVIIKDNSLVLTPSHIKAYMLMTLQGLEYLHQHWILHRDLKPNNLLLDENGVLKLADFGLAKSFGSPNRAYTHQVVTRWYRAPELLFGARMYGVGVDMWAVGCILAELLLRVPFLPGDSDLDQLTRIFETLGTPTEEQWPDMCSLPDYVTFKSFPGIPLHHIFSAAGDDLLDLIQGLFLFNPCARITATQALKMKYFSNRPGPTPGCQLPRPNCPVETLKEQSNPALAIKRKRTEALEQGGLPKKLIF
T4 sequence (P51946 whole entry partner): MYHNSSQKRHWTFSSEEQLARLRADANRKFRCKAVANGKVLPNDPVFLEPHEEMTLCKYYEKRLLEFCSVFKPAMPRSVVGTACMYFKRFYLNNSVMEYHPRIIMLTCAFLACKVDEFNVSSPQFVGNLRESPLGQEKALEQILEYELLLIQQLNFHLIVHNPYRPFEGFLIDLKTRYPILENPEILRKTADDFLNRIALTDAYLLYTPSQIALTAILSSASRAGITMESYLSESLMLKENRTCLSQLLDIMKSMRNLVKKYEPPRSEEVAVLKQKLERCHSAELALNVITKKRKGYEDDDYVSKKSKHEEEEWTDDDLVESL
T4 sequence (P51948 whole entry partner): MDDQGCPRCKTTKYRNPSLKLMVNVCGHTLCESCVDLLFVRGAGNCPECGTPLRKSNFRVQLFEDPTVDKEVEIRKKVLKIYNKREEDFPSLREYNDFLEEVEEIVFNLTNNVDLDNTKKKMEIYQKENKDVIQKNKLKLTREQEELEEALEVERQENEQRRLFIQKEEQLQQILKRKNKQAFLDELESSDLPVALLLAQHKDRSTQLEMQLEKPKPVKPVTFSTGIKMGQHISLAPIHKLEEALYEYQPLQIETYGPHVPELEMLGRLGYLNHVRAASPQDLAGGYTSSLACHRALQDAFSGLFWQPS
Summary of the method: as §2

Compound | IC50 (MV4-11) [nM] | IC50 (A2780) [nM] | IC50 (OVCAR-3) [nM] | IC50 (CDK1/Cyclin B) [nM] | IC50 (CDK5/p25) [nM] | IC50 (H460) [nM] | IC50 (CDK2/Cyclin A) [nM] | IC50 (CDK7/Cyclin H/MNAT1) [nM] | CDK1/CDK7: Selectivity of CDK7 inhibition over CDK1 inhibition (CDK7/Cyclin H/MNAT1) | CDK2/CDK7: Selectivity of CDK7 inhibition over CDK2 inhibition (CDK7/Cyclin H/MNAT1) | CDK5/CDK7: Selectivity of CDK7 inhibition over CDK5 inhibition (CDK7/Cyclin H/MNAT1)
CC(C)c1cnn2c(NCc3ccccc3-n3cc4cccc(NC(=O)/C=C/CN(C)C)c4n3)nc(N3CCC(N)CC3)nc12 [Compound 16] |  |  |  | > 1000 | 100 to 1000 | < 1000 | 100 to 1000 | < 100 | B (B indicates 50 < [fold] ≤ 500) | B (B indicates 50 < [fold] ≤ 500) | C (C indicates [fold] ≤ 50)
CC(C)c1cnn2c(NCc3cccc(-c4cc5cc(NC(=O)/C=C/CN(C)C)ccc5[nH]4)c3)nc(N3CCC(N)CC3)nc12 [Compound 23] |  |  |  | > 1000 | 100 to 1000 | 1000 to 10000 | > 1000 | < 100 | B (B indicates 50 < [fold] ≤ 500) | C (C indicates [fold] ≤ 50) | C (C indicates [fold] ≤ 50)
CC(C)c1cnn2c(NCc3ccccc3-n3cc4cc(NC(=O)/C=C/CN(C)C)ccc4n3)nc(N3CCC(N)CC3)nc12 [Compound 24] |  |  |  | 100 to 1000 | 100 to 1000 | 1000 to 10000 | 100 to 1000 | < 100 | B (B indicates 50 < [fold] ≤ 500) | C (C indicates [fold] ≤ 50) | C (C indicates [fold] ≤ 50)
CC(C)c1cnn2c(NCc3ccccc3-c3nccc4cc(NC(=O)/C=C/CN(C)C)ccc34)nc(NC[C@H]3CCNC[C@@H]3O)nc12 [Compound 26] | < 1000 | < 1000 | < 1000 | > 1000 | > 1000 | < 1000 | > 1000 | < 100 | A (A indicates [fold] > 500) | A (A indicates [fold] > 500) | A (A indicates [fold] > 500)
CC(C)c1cnn2c(NCc3ccccc3-c3nccc4cc(NC(=O)/C=C/CN(C)C)ccc34)nc(N[C@H]3CC[C@H](O)CC3)nc12 [Compound 27] | < 1000 | < 1000 | < 1000 | > 1000 | > 1000 | < 1000 | > 1000 | < 100 | B (B indicates 50 < [fold] ≤ 500) | B (B indicates 50 < [fold] ≤ 500) | B (B indicates 50 < [fold] ≤ 500)

The remaining lines, values ahead:

IC50 (MV4-11) [nM] | IC50 (A2780) [nM] | IC50 (OVCAR-3) [nM] | IC50 (CDK1/Cyclin B) [nM] | IC50 (CDK5/p25) [nM] | IC50 (H460) [nM] | IC50 (CDK2/Cyclin A) [nM] | IC50 (CDK7/Cyclin H/MNAT1) [nM] | CDK1/CDK7: Selectivity of CDK7 inhibition over CDK1 inhibition (CDK7/Cyclin H/MNAT1) | CDK2/CDK7: Selectivity of CDK7 inhibition over CDK2 inhibition (CDK7/Cyclin H/MNAT1) | CDK5/CDK7: Selectivity of CDK7 inhibition over CDK5 inhibition (CDK7/Cyclin H/MNAT1) | Compound
< 1000 | < 1000 | < 1000 | 100 to 1000 | < 100 | < 1000 | 100 to 1000 | < 100 | C (C indicates [fold] ≤ 50) | C (C indicates [fold] ≤ 50) | C (C indicates [fold] ≤ 50) | CC(C)c1cnn2c(NCc3ccccc3-c3cc4c(NC(=O)/C=C/CN(C)C)cccc4[nH]3)nc(N3CCC(N)CC3)nc12 [Compound 3]
 |  |  | 100 to 1000 | < 100 | 1000 to 10000 | < 100 | < 100 | C (C indicates [fold] ≤ 50) | C (C indicates [fold] ≤ 50) | C (C indicates [fold] ≤ 50) | CC(C)c1cnn2c(NCc3ccccc3-c3cc4cc(NC(=O)/C=C/CN(C)C)ccc4[nH]3)nc(N3CCC(N)CC3)nc12 [Compound 19]
< 1000 | < 1000 | < 1000 | > 1000 | 100 to 1000 | < 1000 | > 1000 | < 100 | B (B indicates 50 < [fold] ≤ 500) | A (A indicates [fold] > 500) | B (B indicates 50 < [fold] ≤ 500) | CC(C)c1cnn2c(NCc3ccccc3-c3ccc4cccc(NC(=O)/C=C/CN(C)C)c4n3)nc(N3CCC(N)CC3)nc12 [Compound 20]
< 1000 | < 1000 | < 1000 | 100 to 1000 | < 100 | < 1000 | 100 to 1000 | < 100 | B (B indicates 50 < [fold] ≤ 500) | C (C indicates [fold] ≤ 50) | C (C indicates [fold] ≤ 50) | CC(C)c1cnn2c(NCc3ccccc3-c3cc4cccc(NC(=O)/C=C/CN(C)C)c4[nH]3)nc(N3CCC(N)CC3)nc12 [Compound 25]
